We go through 5 compounds from DBAASP.

Test systems include Candida albicans MDM8; Candida krusei IOC 4559; Bacillus subtilis; Escherichia coli; Proteus vulgaris; Pseudomonas aeruginosa; Salmonella typhimurium; Streptococcus pyogenes; Acinetobacter baumannii; Bacillus cereus AS1.126; Bacillus cereus; Enterobacter cloacae; Enterococcus faecium; Escherichia coli AS1.349; Klebsiella aerogenes; Klebsiella pneumoniae; Lactococcus lactis; Pseudomonas fluorescens; Staphylococcus aureus.

Holding throughout (assay): ≥ marks a high value that may be exact or a test limit, other limits are often not marked, values filed in µg/mL are converted to µM
Experiment [1] relates to Candida albicans IOC 4558.
For experiment [2], the system named is Candida glabrata IOC 4565.
Experiment [3] has as its system Candida parapsilosis IOC 4564.
Experiment [4] concerns Candida tropicalis IOC 4560.
In experiment [5] the test system is Trichosporon sp. IOC 4569.
Experiment [6] deals with Staphylococcus epidermidis.
For experiment [7], the system named is Acinetobacter baumannii CICC 22934.
Experiment [8] has as its system Enterobacter cloacae CGMCC 1.58.
Experiment [9] deals with Enterococcus faecalis CGMCC 1.595.
Experiment [10] has as its system Enterococcus faecium CGMCC 1.2334.
Experiment [11] relates to Escherichia coli ATCC 11775.
The subject of experiment [12] is Klebsiella aerogenes CGMCC 1.876.
The test system of experiment [13] is Klebsiella pneumoniae subsp. pneumoniae CGMCC 1.176.
Experiment [14] has as its system Lactococcus lactis AS1.1690.
For experiment [15], the system named is Proteus mirabilis CICC 22931.
For experiment [16], the system named is Pseudomonas aeruginosa CGMCC 1.860.
The subject of experiment [17] is Staphylococcus aureus AS1.72.
Experiment [18] deals with Staphylococcus aureus ATCC 12600.
Experiment [19] concerns Staphylococcus epidermidis CICC 23664.
The subject of experiment [20] is Bacillus subtilis ATCC 6633.
Experiment [21] relates to Escherichia coli ATCC 25922.
In experiment [22] the test system is Klebsiella pneumoniae ATCC 10031.
Experiment [23] concerns Micrococcus luteus ATCC 10240.
Experiment [24] concerns Pseudomonas aeruginosa ATCC 27853.
The test system of experiment [25] is Salmonella enterica subsp. enterica serovar Typhimurium ATCC 14028.
The test system of experiment [26] is Shigella dysenteriae ATCC 9752.
Experiment [27] has as its system Staphylococcus aureus ATCC 6538P.
For experiment [28], the system named is Staphylococcus epidermidis ATCC 12228.

Structures are written as SMILES. Converted amounts (≈) assume the structure as drawn. “And” between values parts separate entries of the source, which are not always exact repeats. Equal values may be shown once.

On to `CC[C@H](C)[C@H](N)C(=O)N[C@H](C(=O)N[C@H](C(=O)N[C@@H](CCC(N)=O)C(=O)N[C@@H](Cc1ccc(O)cc1)C(=O)N[C@@H](CCC(=O)O)C(=O)NCC(=O)N[C@@H](Cc1cnc[nH]1)C(=O)N[C@@H](CCCCN)C(=O)N[C@@H](Cc1cnc[nH]1)C(=O)O)[C@@H](C)CC)[C@@H](C)CC` [IIIQYEGHKH], for which the MIC is 16.5 µM (≈ 20.4 µg/mL) in experiment [1]; at least 33.5 µM against Candida albicans MDM8; 16.5 µM (≈ 20.4 µg/mL) in [2]; at least 33.5 µM in the experiment with Candida krusei IOC 4559; at least 33.5 µM in experiment [3]; 16.5 µM (≈ 20.4 µg/mL) in [4]. The MIC in experiment [5] was 2.1 µM (≈ 2.6 µg/mL).
As to `CC(C)C[C@H](NC(=O)[C@H](CCCN=C(N)N)NC(=O)[C@@H]1CCCN1C(=O)[C@H](Cc1cnc[nH]1)NC(=O)[C@@H]1CCCN1C(=O)[C@@H]1CCCN1C(=O)[C@H](CCCN=C(N)N)NC(=O)[C@@H]1CCCN1C(=O)[C@@H]1CCCN1C(=O)[C@H](Cc1cnc[nH]1)NC(=O)[C@@H]1CCCN1C(=O)[C@@H]1CCCN1C(=O)[C@H](CCCN=C(N)N)NC(=O)[C@@H]1CCCN1C(=O)[C@@H]1CCCN1C(=O)[C@H](Cc1cnc[nH]1)NC(=O)[C@@H]1CCCN1C(=O)[C@@H]1CCCN1C(=O)[C@H](CCCN=C(N)N)NC(=O)[C@@H]1CCCN1C(=O)[C@@H]1CCCN1C(=O)[C@H](Cc1cnc[nH]1)NC(=O)[C@@H]1CCCN1C(=O)[C@@H]1CCCN1C(=O)[C@H](CCCN=C(N)N)NC(=O)[C@@H]1CCCN1)C(=O)O` [PRPPHPPRPPHPPRPPHPPRPPHPRL], the MIC with Bacillus subtilis was at least 32 µM; in the experiment with Escherichia coli it was 1 µM (≈ 3.01 µg/mL); in the experiment on Proteus vulgaris it was 2 µM (≈ 6.03 µg/mL); against Pseudomonas aeruginosa, 4 µM (≈ 12.1 µg/mL); in the experiment on Salmonella typhimurium, 0.5 µM (≈ 1.51 µg/mL); in experiment [6], at least 64 µM. The compound further had an MIC in the experiment with Streptococcus pyogenes of at least 64 µM.
Turning to `CC(C)C[C@H](NC(=O)CNC(=O)[C@H](Cc1ccccc1)NC(=O)[C@H](CCCN=C(N)N)NC(=O)[C@H](CCCN=C(N)N)NC(=O)CNC(=O)[C@H](Cc1cnc[nH]1)NC(=O)[C@H](CCCN=C(N)N)NC(=O)CNC(=O)[C@@H](NC(=O)[C@H](C)NC(=O)[C@@H](N)CO)C(C)C)C(=O)N[C@@H](CCCN=C(N)N)C(=O)N[C@@H](CCCCN)C(=O)N[C@@H](Cc1cnc[nH]1)C(=O)N[C@@H](CCCN=C(N)N)C(=O)N[C@@H](CCCCN)C(=O)N[C@@H](Cc1cnc[nH]1)C(=O)O` [SAVGRHGRRFGLRKHRKH], the MIC was at least 100 µM in experiment [7]; at least 50 µM against Acinetobacter baumannii; 11.6 µM (≈ 25 µg/mL) against Bacillus cereus AS1.126; 11.6 µM (≈ 25 µg/mL) in the experiment with Bacillus cereus; at least 500 µM in experiment [8]; at least 50 µM with Enterobacter cloacae. For the same compound, the MIC in experiment [9] was at least 33.3 µM; in [10], at least 42.4 µM; with Enterococcus faecium, at least 50 µM; in the experiment with Escherichia coli AS1.349, at least 500 µM; in experiment [11], 3 µM (≈ 6.47 µg/mL); against Escherichia coli it was > 100 µM and 50 µM. Further, the MIC is at least 500 µM in experiment [12]; at least 50 µM in the experiment on Klebsiella aerogenes; at least 500 µM in [13]; over 50 µM with Klebsiella pneumoniae; 15.6 µM (≈ 33.6 µg/mL) in experiment [14]; 11.6 µM (≈ 25 µg/mL) with Lactococcus lactis. The MIC was at least 100 µM in experiment [15]; at least 380 µM in experiment [16]; over 50 µM against Pseudomonas aeruginosa; at least 50 µM against Pseudomonas fluorescens; at least 58 µM in experiment [17]; 6 µM (≈ 12.9 µg/mL) in [18]. In addition, the MIC against Staphylococcus aureus was 58 µM and 50 µM; in experiment [19], 7.2 µM (≈ 15.5 µg/mL); in experiment [6], at least 50 µM.
In the case of `CC(C)C[C@H](NC(=O)[C@H](CCCN=C(N)N)NC(=O)[C@@H]1CCCN1C(=O)[C@H](Cc1cnc[nH]1)NC(=O)[C@@H]1CCCN1C(=O)[C@@H]1CCCN1C(=O)[C@H](CCCN=C(N)N)NC(=O)[C@@H]1CCCN1C(=O)[C@@H](N)CCC(N)=O)C(=O)O` [QPRPPHPRL], the MIC against Bacillus subtilis is at least 64 µM; in the experiment on Escherichia coli, 64 µM (≈ 70.2 µg/mL); in the experiment with Proteus vulgaris, at least 64 µM; in the experiment on Pseudomonas aeruginosa, 64 µM (≈ 70.2 µg/mL); in the experiment with Salmonella typhimurium, at least 32 µM; in experiment [6], at least 64 µM. The MIC against Streptococcus pyogenes was at least 64 µM.
In the case of `CC(C)C[C@H](NC(=O)[C@H](CCCCN)NC(=O)[C@H](CC(C)C)NC(=O)[C@H](CC(C)C)NC(=O)[C@H](Cc1c[nH]c2ccccc12)NC(=O)[C@H](CCCCN)NC(=O)[C@H](CC(C)C)NC(=O)[C@H](CC(C)C)NC(=O)[C@@H](N)CCCCN)C(N)=O` [KLLKWLLKL], the MIC in experiment [20] is 10.8 µM (≈ 12.5 µg/mL); in experiment [21], 10.8 µM (≈ 12.5 µg/mL); in experiment [22] it was 5.46 µM (≈ 6.29 µg/mL); in [23], 21.7 µM (≈ 25 µg/mL); in experiment [24], 43.3 µM (≈ 50 µg/mL); in [25] it was 21.7 µM (≈ 25 µg/mL). The MIC came out at 10.8 µM (≈ 12.5 µg/mL) in [26], 2.69 µM (≈ 3.1 µg/mL) in experiment [27] and 10.8 µM (≈ 12.5 µg/mL) in [28].
